# Earlier results, collected in patent publication US20210369751A1, “BIOLOGICALLY ACTIVE COMPOSITIONS AND METHODS OF USING” (Mediwel Labs, LLC, priority 2020, published 2021).
# Entries after “also recorded” stand apart in the source; their conditions may differ.
# Assays:
# CD38 = target: T1, CD38 (Homo sapiens, UniProt P28907); conditions: purified pharmaceutical grade flavonoids; competitive antagonists
# T1 sequence (P28907 1-300): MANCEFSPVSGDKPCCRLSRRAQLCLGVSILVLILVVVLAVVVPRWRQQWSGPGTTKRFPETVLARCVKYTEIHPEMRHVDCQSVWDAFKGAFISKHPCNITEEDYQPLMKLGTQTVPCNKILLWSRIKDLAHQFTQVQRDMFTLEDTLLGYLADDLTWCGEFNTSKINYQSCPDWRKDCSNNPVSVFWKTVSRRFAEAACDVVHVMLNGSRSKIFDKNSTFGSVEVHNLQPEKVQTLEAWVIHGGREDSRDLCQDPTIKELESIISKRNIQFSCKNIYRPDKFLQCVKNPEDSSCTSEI
# [1] = propranolol co-administered with 3 mg piperine
# [2] = 20 mg piperine daily for seven days before 150 mg theophylline
# [3] = 20 mg piperine daily for seven days before 300 mg phenytoin
inhibition of CD38 and its catalytic activity (CD38),elimination rate of theophylline with piperine pretreatment [2],"maximum concentration of theophylline, pretreated with piperine versus drug alone ([2]; six healthy volunteers)",elimination of phenytoin with piperine pretreatment [3],maximum concentration of phenytoin with piperine pretreatment [3],time to maximum concentration of phenytoin with piperine pretreatment [3],SMILES,elimination rate of propranolol with piperine [1],maximum blood concentration / blood levels of propranolol with piperine [1]
potent inhibition,,,,,,O=c1cc(-c2ccc(O)cc2)oc2cc(O)cc(O)c12 [apigenin],,
,significantly slowed down,1.5 times,significantly slower elimination,significantly higher concentrations,shorter time,O=C(/C=C/C=C/c1ccc2c(c1)OCO2)N1CCCCC1 [piperine],did not affect the elimination rate; also recorded: without slowing down the drug elimination rate,increased two fold; also recorded: doubling its blood levels
potent inhibition,,,,,,O=c1c(O)c(-c2ccc(O)c(O)c2)oc2cc(O)cc(O)c12 [quercetin],,
